Test results taken from patent US11857635B2, “Linker compound, polyethylene glycol-linker conjugate and derivative thereof and polyethylene glycol-linker-drug conjugate” (JENKEM TECHNOLOGY CO., LTD. (TIANJIN), priority 2017, dated 2024).

System: HCT116 tumor
Assay: Tumor growth inhibition in HCT116 tumor heterotopic transplantation mouse model
Type: in vivo
Details: HCT116 subcutaneous tumor in mice, FIG. 6
Description: The experiment was carried out to detect a tumor growth inhibition effect of a drug on the HCT116 tumor heterotopic transplantation mouse model.
G2: positive drug adriamycin (commercially available); and
G3: 4arm PEG-L5-Dox (prepared in Example 22).
An original culture solution was removed by suction after HCT116 cells (commercially available) were received, and 10 mL of fresh culture solution was added. The cells were collected and passaged when 90% of the cells were converged. After the culture solution was removed, 10 ml of EDTA/PBS solution was added and placed at room temperature for 5 minutes, and then the EDTA/PBS solution was removed by suction. […] The cells was counted with a counting plate and diluted with DMEM containing 10% FBS. […]
The cell suspension was changed in advance when it was detected that 80% of the cells were converged on the inoculation day of the cells. […] The cells were counted with a counting plate and diluted with PBS to a concentration of 2*10^7 cells/mL, and then the cells were placed on ice until inoculation.
HCT116 cells were subcutaneously inoculated in a right front axilla of a mouse. […] Tumor volumes were measured twice a week after inoculation, and when an average tumor volume reached 100 to 200 mm^3, 18 mice with similar tumor sizes were selected and randomly divided into 3 groups with 6 mice in each group. […]

`COc1cccc2c1C(=O)c1c(O)c3c(c(O)c1C2=O)C[C@@](O)(C(=O)CO)C[C@@H]3O[C@H]1C[C@H](N)[C@H](O)[C@H](C)O1` [adriamycin] was tested. Which Anti-tumor effect did it give?
Its Anti-tumor effect is “obvious anti-tumor effects”.
